Patent publication US8273762B2, “Hexahydro-pyrrolo-isoquinoline compounds” (Janssen Pharmaceutica NV, priority 2005, dated 2012)
Read-outs that look alike come from different tables or passages of the source.

Columns and labels:
[1] = target: T1, cloned human H3 receptor, stably expressed in SK-N-MC cells (Homo sapiens, UniProt Q9Y5N1); experiment: H3 receptor binding (N-[3H]-α-methylhistamine displacement); settings: SK-N-MC membranes, 0.8 nM N-[3H]-α-methylhistamine
T1 construct: expressed in transfected cells

[2] = target: T2, human SERT (HEK293 membranes) (Homo sapiens, UniProt P31645); experiment: Human SERT binding (3H-citalopram displacement)
T2 construct: purchased Perkin-Elmer; host or cells: HEK293 membranes

Rat SERT = target: T3, Rat SERT (Rattus norvegicus, UniProt P31652); experiment: Rat brain SERT binding ([3H]-Citalopram displacement)
T3 construct: A rat brain without cerebellum (Zivic Laboratories, Inc.—Pittsburgh, Pa.) was homogenized; tissue Zivic Laboratories, Inc; host or cells: rat brain without cerebellum, membranes

[3] = target: T4, human H3 receptor (SK-N-MC cells) (Homo sapiens, UniProt Q9Y5N1); experiment: Cyclic AMP accumulation (β-galactosidase reporter, Schild analysis vs histamine); assay type: cell-based
T4 construct: expressed in transfected cells; host or cells: SK-N-MC sublines with CRE-beta-galactosidase reporter

[4] = rat brain membranes, 0.6 nM [3H]-Citalopram, read-out: Rat SERT Ki

T2 sequence (P31645 whole entry): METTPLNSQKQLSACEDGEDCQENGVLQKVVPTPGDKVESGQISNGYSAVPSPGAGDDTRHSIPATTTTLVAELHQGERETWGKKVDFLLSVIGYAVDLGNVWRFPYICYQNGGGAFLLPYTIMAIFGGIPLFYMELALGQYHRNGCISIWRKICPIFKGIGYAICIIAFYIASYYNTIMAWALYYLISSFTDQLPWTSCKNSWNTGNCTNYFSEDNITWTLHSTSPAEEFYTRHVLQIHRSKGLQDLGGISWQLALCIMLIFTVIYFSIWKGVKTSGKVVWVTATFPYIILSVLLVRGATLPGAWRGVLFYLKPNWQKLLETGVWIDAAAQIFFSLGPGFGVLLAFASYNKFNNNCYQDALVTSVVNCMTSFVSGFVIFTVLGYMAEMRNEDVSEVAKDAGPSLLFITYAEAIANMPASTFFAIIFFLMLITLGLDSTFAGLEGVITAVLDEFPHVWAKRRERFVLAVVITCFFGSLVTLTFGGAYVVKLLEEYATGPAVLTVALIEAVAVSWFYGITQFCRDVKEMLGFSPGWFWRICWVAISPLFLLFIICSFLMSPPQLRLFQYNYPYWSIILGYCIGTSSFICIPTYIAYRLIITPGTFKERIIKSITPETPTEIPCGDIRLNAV
T4 sequence (Q9Y5N1 whole entry): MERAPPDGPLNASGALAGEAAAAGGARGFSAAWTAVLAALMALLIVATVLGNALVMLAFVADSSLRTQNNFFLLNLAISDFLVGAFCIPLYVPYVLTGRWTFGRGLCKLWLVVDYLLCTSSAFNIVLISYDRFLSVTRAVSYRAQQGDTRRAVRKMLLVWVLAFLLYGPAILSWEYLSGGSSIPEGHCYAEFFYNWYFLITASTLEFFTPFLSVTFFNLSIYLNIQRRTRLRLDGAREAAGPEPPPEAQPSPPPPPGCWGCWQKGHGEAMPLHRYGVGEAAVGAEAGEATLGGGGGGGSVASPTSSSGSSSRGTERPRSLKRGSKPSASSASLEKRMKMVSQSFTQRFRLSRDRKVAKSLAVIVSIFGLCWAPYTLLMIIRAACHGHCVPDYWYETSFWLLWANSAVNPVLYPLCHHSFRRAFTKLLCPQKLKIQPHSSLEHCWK
T1 sequence (Q9Y5N1 whole entry): as above
T3 sequence (P31652 whole entry): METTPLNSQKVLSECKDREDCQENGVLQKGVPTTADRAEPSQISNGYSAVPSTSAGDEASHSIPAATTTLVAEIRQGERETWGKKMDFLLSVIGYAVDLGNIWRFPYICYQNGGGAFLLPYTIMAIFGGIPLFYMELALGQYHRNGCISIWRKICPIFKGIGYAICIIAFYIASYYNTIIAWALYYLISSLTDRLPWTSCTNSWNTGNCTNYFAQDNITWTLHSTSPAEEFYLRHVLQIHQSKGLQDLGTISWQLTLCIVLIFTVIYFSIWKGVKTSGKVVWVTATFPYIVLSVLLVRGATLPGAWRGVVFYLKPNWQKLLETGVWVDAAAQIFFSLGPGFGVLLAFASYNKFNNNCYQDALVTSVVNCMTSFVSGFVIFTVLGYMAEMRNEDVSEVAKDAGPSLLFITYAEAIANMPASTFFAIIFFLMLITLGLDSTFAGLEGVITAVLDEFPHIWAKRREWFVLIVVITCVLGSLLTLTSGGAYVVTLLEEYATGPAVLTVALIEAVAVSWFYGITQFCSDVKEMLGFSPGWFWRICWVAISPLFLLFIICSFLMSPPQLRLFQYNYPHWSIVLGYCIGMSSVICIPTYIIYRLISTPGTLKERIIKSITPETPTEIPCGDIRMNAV

Compound | Ki [1] | Ki [2] | Ki (Rat SERT; [4]) | Kb ([3]; read-out: H3 pA2 (converted)) | Ki (Rat SERT) | Kb [3]
C[Si](C)(C)C#Cc1cccc([C@H]2CN3CCC[C@H]3c3cc(OCCCN4CCCCC4)ccc32)c1 (relative stereo) [Example 33] | 7 nM |  |  |  | 33 nM | 7.94 nM
O=[N+]([O-])c1ccc([C@@H]2CN3CCC[C@H]3c3cc(OCCCN4CCCCC4)ccc32)cc1 (relative stereo) [Example 2B, Trans-6-(4-Nitro-phenyl)-9-(3-piperidin-1-yl-propoxy)-1,2,3,5,6,10b-hexahydro-pyrrolo[2,1-a]isoquinoline] | 31 nM |  | 544 nM | 1.58 nM |  | 
C[Si](C)(C)C#Cc1ccc([C@H]2CN3CCC[C@H]3c3cc(OCCCN4CCCCC4)ccc32)cc1 (relative stereo) [Example 36] | 4 nM |  |  |  | 15 nM | 10 nM
COc1cccc([C@@H]2CN3CCC[C@H]3c3cc(OCCCN4CCCCC4)ccc32)c1 (relative stereo) [Example 10B, Trans-6-(3-Methoxy-phenyl)-9-(3-piperidin-1-yl-propoxy)-1,2,3,5,6,10b-hexahydro-pyrrolo[2,1-a]isoquinoline] | 2 nM |  | 37 nM | 0.251 nM |  | 
c1ccc([C@@H]2CN3CCC[C@H]3c3cc(OCCCN4CCCCC4)ccc32)cc1 (relative stereo) [Example 1B, Trans-6-Phenyl-9-(3-piperidin-1-yl-propoxy)-1,2,3,5,6,10b-hexahydro-pyrrolo[2,1a]isoquinoline] | 0.2 nM |  | 138 nM | 0.251 nM |  | 
Clc1cccc([C@@H]2CN3CCC[C@H]3c3cccc(OCCCN4CCCCC4)c32)c1 (relative stereo) [Example 11C] | 136 nM |  | 1000 nM |  |  | 
COc1ccc([C@H]2CN3CCC[C@H]3c3cc(OCCCN4CCOCC4)ccc32)cc1 [Example 91, (1S,6R)-6-(4-Methoxy-phenyl)-9-(3-morpholin-4-yl-propoxy)-1,2,3,5,6,10b-hexahydro-pyrrolo[2,1-a]isoquinoline] |  |  | 60 nM | 3.16 nM |  | 
CSc1ccc([C@@H]2CN3CCC[C@@H]3c3cc(OCCCN4CCOCC4)ccc32)cc1 [Example 89, (1R,6S)-6-(4-Methylsulfanyl-phenyl)-9-(3-morpholin-4-yl-propoxy)-1,2,3,5,6,10b-hexahydro-pyrrolo[2,1-a]isoquinoline] | 16 nM |  | 3 nM |  |  | 
CSc1ccc(C2CN3CCCC3c3cccc(OCCCN4CCCCC4)c32)cc1 (centres unmarked) [Example 39C, 6-(4-Methylsulfanyl-phenyl)-7-(3-piperidin-1-yl-propoxy)-1,2,3,5,6,10b-hexahydro-pyrrolo[2,1-a]isoquinoline] | 36 nM |  | 69 nM |  |  | 
CSc1ccc([C@H]2CN3CCC[C@H]3c3cc(OCCCN4CCOCC4)ccc32)cc1 [Example 90, (1S,6R)-6-(4-Methylsulfanyl-phenyl)-9-(3-morpholin-4-yl-propoxy)-1,2,3,5,6,10b-hexahydro-pyrrolo[2,1-a]isoquinoline] | 10 nM |  | 24 nM |  |  | 
COc1ccc([C@@H]2CN3CCC[C@H]3c3cc(OCCCN4CCOCC4)ccc32)cc1 [Example 95, (1S,6S)-6-(4-Methoxy-phenyl)-9-(3-morpholin-4-yl-propoxy)-1,2,3,5,6,10b-hexahydro-pyrrolo[2,1-a]isoquinoline] | 6 nM | 13 nM | 11 nM |  |  | 
FC(F)(F)c1ccc([C@@H]2CN3CCC[C@H]3c3cc(OCCCN4CCCCC4)ccc32)cc1 (relative stereo) [Example 7A, Cis-9-(3-Piperidin-1-yl-propoxy)-6-(4-trifluoromethyl-phenyl)-1,2,3,5,6,10b-hexahydro-pyrrolo[2,1-a]isoquinoline] |  |  | 27 nM |  |  | 
Clc1cccc([C@H]2CN3CCC[C@H]3c3cc(OCCCN4CCCCC4)ccc32)c1 (relative stereo) [Example 11B, Trans-6-(3-Chloro-phenyl)-9-(3-piperidin-1-yl-propoxy)-1,2,3,5,6,10b-hexahydro-pyrrolo[2,1-a]isoquinoline] | 1 nM |  | 91 nM | 0.501 nM |  | 
CN(C)c1ccc([C@H]2CN3CCC[C@H]3c3cc(OCCCN4CCCCC4)ccc32)cc1 (relative stereo) [Example 30] | 2 nM | 2 nM | 3 nM |  |  | 
COc1ccc([C@H]2CN3CCC[C@@H]3c3cc(OCCCN4CCOCC4)ccc32)cc1 [Example 94, (1R,6R)-6-(4-Methoxy-phenyl)-9-(3-morpholin-4-yl-propoxy)-1,2,3,5,6,10b-hexahydro-pyrrolo[2,1-a]isoquinoline] | 4 nM | 111 nM | 53 nM |  |  | 
COc1ccc([C@H]2CN3CCC[C@H]3c3cc(OCCCN4CCCCC4)ccc32)cc1OC (relative stereo) [Example 18] | 0.9 nM | 13 nM |  | 0.501 nM |  | 
FC(F)(F)c1ccc([C@@H]2CN3CCC[C@H]3c3cccc(OCCCN4CCCCC4)c32)cc1 (relative stereo) [Example 7C] | 31 nM |  | 630 nM |  |  | 
N#Cc1ccc([C@H]2CN3CCC[C@H]3c3cc(OCCCN4CCCCC4)ccc32)cc1 (relative stereo) [Example 41B, Trans-4-[9-(3-Piperidin-1-yl-propoxy)-1,2,3,5,6,10b-hexahydro-pyrrolo[2,1-a]isoquinolin-6-yl]-benzonitrile] | 1 nM |  | 6 nM | 0.794 nM |  | 

Now from value to compound, other results behind:

Ki [1] | Ki [2] | Ki (Rat SERT; [4]) | Kb ([3]; read-out: H3 pA2 (converted)) | Compound | Ki (Rat SERT) | Kb [3]
1 nM | 0.6 nM | 4 nM | 0.316 nM | Clc1cccc([C@@H]2CN3CCC[C@H]3c3cc(OCCCN4CCCCC4)ccc32)c1 (relative stereo) [Example 11A, Cis-6-(3-Chloro-phenyl)-9-(3-piperidin-1-yl-propoxy)-1,2,3,5,6,10b-hexahydro-pyrrolo[2,1-a]isoquinoline] |  | 
82 nM |  | 2000 nM |  | COc1cccc([C@@H]2CN3CCC[C@H]3c3cccc(OCCCN4CCCCC4)c32)c1 (relative stereo) [Example 10C, Trans-6-(3-Methoxy-phenyl)-7-(3-piperidin-1-yl-propoxy)-1,2,3,5,6,10b-hexahydro-pyrrolo[2,1-a]isoquinoline] |  | 
4 nM | 9 nM | 14 nM |  | COc1ccc([C@H]2CN3CCC[C@H]3c3cc(OCCCN4CCOC[C@@H]4C)ccc32)cc1 [Example 46, Cis-6-(4-Methoxy-phenyl)-9-[3-(3S-methyl-morpholin-4-yl)-propoxy]-1,2,3,5,6,10b-hexahydro-pyrrolo[2,1-a]isoquinoline] |  | 
1 nM |  | 154 nM |  | O=[N+]([O-])c1cccc([C@@H]2CN3CCC[C@H]3c3cccc(OCCCN4CCCCC4)c32)c1 (relative stereo) [Example 4D, Trans-6-(3-Nitro-phenyl)-7-(3-piperidin-1-yl-propoxy)-1,2,3,5,6,10b-hexahydro-pyrrolo[2,1-a]isoquinoline] |  | 
4 nM | 112 nM |  | 1.26 nM | Oc1ccccc1[C@H]1CN2CCC[C@H]2c2cc(OCCCN3CCCCC3)ccc21 (relative stereo) [Example 16] |  | 
3 nM | 4 nM |  | 6.31 nM | Clc1ccc([C@@H]2CN3CCC[C@H]3c3cc(OCCCN4CCCCC4)ccc32)cc1Cl (relative stereo) [Example 6A, Cis-6-(3,4-Dichloro-phenyl)-9-(3-piperidin-1-yl-propoxy)-1,2,3,5,6,10b-hexahydro-pyrrolo[2,1-a]isoquinoline] |  | 
68 nM |  | 4000 nM |  | c1ccc([C@@H]2CN3CCC[C@H]3c3cccc(OCCCN4CCCCC4)c32)cc1 (relative stereo) [Example 1C, Trans-6-Phenyl-7-(3-piperidin-1-yl-propoxy)-1,2,3,5,6,10b-hexahydro-pyrrolo[2,1a]isoquinoline] |  | 
1000 nM |  | 6000 nM |  | Oc1ccc([C@@H]2CN3CCC[C@H]3c3cccc(OCCCN4CCCCC4)c32)cc1 (relative stereo) [Example 9B] |  | 
2 nM | 3 nM |  | 1 nM | Fc1ccc([C@@H]2CN3CCC[C@H]3c3cc(OCCCN4CCCCC4)ccc32)cc1 (relative stereo) [Example 14A, Cis-6-(4-Fluoro-phenyl)-9-(3-piperidin-1-yl-propoxy)-1,2,3,5,6,10b-hexahydro-pyrrolo[2,1-a]isoquinoline] |  | 
0.4 nM | 5 nM | 4 nM |  | COc1ccc([C@H]2CN3CCC[C@H]3c3cc(OC4CCN(C(C)C)CC4)ccc32)cc1 (relative stereo) [Example 28] |  | 
1 nM | 5 nM |  | 0.398 nM | COc1ccc([C@H]2CN3CCC[C@H]3c3cc(OCCCN4CCCCC4)ccc32)c(OC)c1 (relative stereo) [Example 19] |  | 
1 nM | 9 nM |  | 6.31 nM | COc1ccc([C@@H]2CN3CCC[C@H]3c3cc(C#CCCN4CCCCC4)ccc32)cc1 (relative stereo) [Example 96A, Cis-6-(4-methoxy-phenyl)-9-(4-piperidin-1-yl-but-1-ynyl)-1,2,3,5,6,10b-hexahydro-pyrrolo[2,1-a]isoquinoline] |  | 
 |  | 25 nM |  | FC(F)(F)c1ccc([C@@H]2CN3CCC[C@@H]3c3cc(OCCCN4CCCCC4)ccc32)cc1 (relative stereo) [Example 7B, Trans-9-(3-Piperidin-1-yl-propoxy)-6-(4-trifluoromethyl-phenyl)-1,2,3,5,6,10b-hexahydro-pyrrolo[2,1-a]isoquinoline] |  | 
2 nM | 8 nM |  | 1.26 nM | Clc1ccccc1[C@@H]1CN2CCC[C@H]2c2cc(OCCCN3CCCCC3)ccc21 (relative stereo) [Example 12A, Cis-6-(2-Chloro-phenyl)-9-(3-piperidin-1-yl-propoxy)-1,2,3,5,6,10b-hexahydro-pyrrolo[2,1-a]isoquinoline] |  | 
